Laboratory results reported in US12414997B2, “Brush prodrugs and uses thereof” (Massachusetts Institute of Technology, priority 2018, dated 2025).

Key:
[1] = tested on: orthotopic, syngeneic tumor; test: Efficacy of Brush prodrugs in orthotopic, syngeneic tumor (tumor volume, tumor weight, body weight); type: in vivo
Protocol: In FIGS. 5D to 5F, “iBET” refers to OTX-015.
Tumor volumes are calculated after measuring length and width using digital calipers. Tumors were also weighted, and the body weight was measured.

[2] = clinical; cited from earlier work

Cc1sc2c(c1C)C(c1ccc(Cl)cc1)=N[C@@H](CC(=O)Nc1ccc(O)cc1)c1nnc(C)n1-2 [OTX-015]
body weight loss ([1]; tolerated dose 100 mpk BID, PO (FIG. 5C)): minor weight loss | body weight loss ([1]; tolerated doses 5 mpk and 10 mpk (FIG. 5F)): minor weight loss | dose-limiting toxicity: anemia [2]: 91% | dose-limiting toxicity: neutropenia [2]: 51% | dose-limiting toxicity: thrombocytopenia [2]: 96%
